{"source": "patent US20240150341A1", "about": "“COMPOSITION FOR PREVENTING OR TREATING DISEASES CAUSED BY MITOCHONDRIAL DYSFUNCTION, CONTAINING ISOQUINOLINE DERIVATIVE COMPOUND AS ACTIVE INGREDIENT” (ALTMEDICALCO., LTD., priority 2021, published 2024)", "key": {"[1]": {"tested_on": "mitochondrial reactive oxygen species (ROS)", "test": "Mitochondrial reactive oxygen species, MitoSOX assay", "type": "cell-based", "conditions": "CD1-012 10 μM or 15 μM, CCCP 10 μM, FIG. 6", "description": "(§1) To determine if the CD1-012 synthesized in Example 1 induces mitochondrial dysfunction similar to CCCP of Comparative Example 1, the CD1-012 (10 μM or 15 μM) and the CCCP (10 μM) were treated for hours. Afterward, the mitochondrial membrane potential and the level of mitochondrial reactive oxygen species (ROS) of each sample were analyzed, and the results were represented in FIG. 6.\n(§2) The mitochondrial membrane potential was analyzed using the TMRM (tetramethylrhodamine methyl ester) assay, and the mitochondrial ROS was analyzed using the MitoSOX assay."}, "[2]": {"tested_on": "PINK1 knockdown cells (shPINK1), BEAS-2B", "test": "Mitophagy activity in PINK1 knockdown (shPINK1) BEAS-2B cells (FACS)", "type": "cell-based, human", "conditions": "CCCP 10 μM, CD1-012 15 μM, 18 hours, FIG. 7", "description": "In order to analyze whether the activation of mitophagy by the CD1-012 synthesized in Example 1 is dependent on the PINK1-Parkin pathway, the PINK 1 was knockdown using short hairpin RNA (shRNA) in BEAS-2B cell lines. Then, CCCP (10 μM) from Comparative Example 1 and the CD1-012 (15 μM) were treated for 18 hours, and the mitophagy activity of each sample was analyzed using a flow cytometry (FACS) and represented in FIG. 7."}, "[3]": {"tested_on": "mitochondrial membrane potential", "test": "Mitochondrial membrane potential, TMRM assay", "type": "cell-based", "conditions": "CD1-012 10 μM or 15 μM, CCCP 10 μM, FIG. 6", "description": "as §1, §2"}, "[4]": {"tested_on": "APP/PS2 mice", "test": "Morris water maze test in Alzheimer's disease mouse model", "type": "in vivo", "conditions": "for memory capabilities, free-swimming analysis on the 7th day: intranasal, every day for 4 weeks, CD1-012 1 mg/Kg, palmatine 10 mg/Kg, FIG. 10", "description": "Subsequently, to analyze the representative symptom improvement effect of Alzheimer's disease, spatial learning and memory abilities were measured through the Morris water maze test (represented in FIG. 10, 9-10 mice per group). During the behavior test, from day 1 to day 6, training was conducted, where the time taken from the start to climb the escape stand was measured 4 times. On the 7th day, free-swimming test was conducted for 60 seconds, and the time spent in the area where the escape stand was located during training was measured to analyze the learning and memory abilities of the experimental animals. The results were represented in […].\nFor the purpose of comparing the treatment effect of the CD1-012 synthesized in Example 1 with that of palmatine in Comparative Example 2 on an Alzheimer's disease animal model, APP/PS2 mice were intranasally administered with the CD1-012 at a concentration of 1 mg/Kg and palmatine at 10 mg/Kg every day for 4 weeks. The treatment effects on dementia were confirmed with a water maze test, and the results were represented in FIG. 10 (9-10 mice per group)."}, "[5]": {"tested_on": "BEAS-2B cell line", "test": "Mitophagy activity with mt-Keima fluorescent protein in BEAS-2B cells (flow cytometry / confocal microscope)", "type": "cell-based, human", "text": "(§3) To analyze the mitophagy-promoting activity effect of the isoquinoline derivative compound synthesized in the Example 1 (hereinafter, CD1-012), a quantification method for mitophagy activity, using a mt-Keima fluorescent protein, was utilized, which can measure the mitophagy activity in living cells through flow cytometry or a confocal microscope.\nTo analyze the mitophagy-promoting activity effect of CD1-012 synthesized in Example 1, the BEAS-2B cell line, which is a human normal lung cell line, was induced to express the mt-Keima fluorescent protein. Following this, the CD1-012 (15 μM) and the compound of Comparative Example 1, CCCP (10 μM), were treated for 24 hours. After the treatment, the mitophagy activity of each sample was measured, and the results were represented in FIG. 1.\nSpecifically, FIG. 1A represents the analysis results using flow cytometry (FACS), FIG. 1B represents the analysis results using a confocal microscope, and FIG. 1C represents the measurement results of the quantitative changes in the mitochondria using a fluorescent protein, mito-YFP, which includes a targeting sequence to transport protein to the mitochondria.\nTo analyze whether CD1-012 synthesized in Example 1 promotes mitophagy activity in a concentration and time-dependent manner, the BEAS-2B cell line expressing mt-Keima was treated with varying concentrations of CD1-012 or a constant concentration (15 μM) for different durations. The mitophagy activity was then measured using flow cytometry, with the concentration-dependent mitophagy activity results represented in FIG. 3A and the time-dependent mitophagy activity results in FIG. 3B.\n(§4) To confirm whether the synthesized CD1-012 in Example 1 specifically increases mitophagy activity, the CD1-012 (15 μM) of the Example 1 and the CCCP (10 μM) of Comparative Example 1 were treated to the BEAS-2B cell line expressing mt-Keima for 18 hours. Subsequently, the mitophagy activity was analyzed using a confocal microscope, and the results were represented in FIG. 4A. Moreover, the BEAS-2B cell line expressing Keima fluorescent protein was cultured in HBSS (Hanks' balanced salts solution) for 3 hours to induce a nutrient-deficient state (starvation, starv.). The autophagy activity was measured by comparing the sample treated with the CD1-012 (15 μM) for hours using a confocal microscope, and the results were represented in FIG. 4B.\nThe mitophagy-promoting activity effect of each sample was compared, and the results were represented in FIG. 5."}, "[6]": {"tested_on": "HeLa cervical cancer cell line (Hela-Parkin)", "test": "Mitophagy activity in HeLa-Parkin cells (FACS)", "type": "cell-based", "conditions": "FIG. 2B", "text": "as §3\n(§5) To determine whether CD1-012 synthesized in Example 1 enhances mitophagy activity in various cell lines, the human neuroblastoma cell line, SH-SY5Y, expressing mt-Keima fluorescent protein and HeLa cervical cancer cell line (Hela-Parkin) expressing Parkin (E3ligase) were treated with CD1-012 and CCCP of Comparative Example 1. Following this treatment, the mitophagy activity of each sample was analyzed using flow cytometry (FACS), and the results were represented in FIG. 2.\n(§6) Specifically, FIG. 2A represents the analysis results for the SH-SY5Y cell line, and FIG. 2B represents the analysis results for the HeLa-Parkin cell line."}, "[7]": {"tested_on": "SH-SY5Y", "test": "Mitophagy activity in SH-SY5Y cells expressing mt-Keima (FACS)", "type": "cell-based, human", "conditions": "FIG. 2A", "text": "as §3, §5, §6"}, "[8]": {"tested_on": "SH-SY5Y overexpressing APPswd/ind protein", "test": "ATP generation level in Alzheimer's disease cell model", "type": "cell-based, human", "conditions": "CD1-012 20 μM, measured 48 hours later, FIG. 8", "description": "To verify whether the CD1-012 synthesized in Example 1 improves mitochondrial dysfunction in the Alzheimer's disease cell model, the human neuron cell line SH-SY5Y was overexpressed with APPswd/ind protein causing Alzheimer's disease to prepare the Alzheimer's disease cell model. After treating the cell model with the CD1-012 (20 μM) for hours, the ATP generation level, an indicator of mitochondrial function, was measured 48 hours later and the results were represented in FIG. 8."}, "[9]": {"tested_on": "BEAS-2B cell line", "test": "Autophagy activity in BEAS-2B cells expressing Keima fluorescent protein (confocal microscope)", "type": "cell-based, human", "conditions": "CD1-012 15 μM; compared with HBSS starvation 3 hours; FIG. 4B", "description": "as §4"}, "[10]": {"conditions": "APP/PS2 mice, 1 mg/kg every day for 4 weeks, nasal administration, FIG. 9"}, "[11]": {"conditions": "BEAS-2B mt-Keima, flow cytometry, FIG. 3A"}}, "data": [{"compound": "N#CC(C#N)=NNc1cccc(Cl)c1", "note": "[CCCP, Carbonyl Cyanide 3-chlorophenylhydrazone, reference compound]", "values": [{"measurement": "mitochondrial ROS", "setting": "[1]", "result": "significantly increased mitochondrial ROS"}, {"measurement": "mitophagy activation in shPINK1 cells compared to the control cell line (shNT)", "setting": "[2]", "result": "significantly decreased"}, {"measurement": "mitochondrial membrane potential", "setting": "[3]", "result": "significantly reduced the mitochondrial membrane potential"}]}, {"compound": "COc1cc2c(cc1OC)-c1cc3ccc(OC)c(OC)c3c[n+]1CC2", "note": "[palmatine, Palmatine, reference compound]", "values": [{"measurement": "memory capabilities, free-swimming analysis on the 7th day", "setting": "[4]; APP/PS2 mice", "result": "improved similarly"}, {"measurement": "concentration at which maximum mitophagy activity was reached", "setting": "[5]; BEAS-2B mt-Keima, FIG. 5", "result": 400, "unit": "µM"}]}, {"compound": "Oc1cc2c(cc1O)-c1cc3ccc(O)c(O)c3c[n+]1CC2", "note": "[CD1-012, 2,3,9,10-Tetrahydroxy-5,6-dihydroisoquinolino[3,2-a]isoquinolin-7-iumbromide]", "values": [{"measurement": "mitophagy activity compared to the control group", "setting": "[6]", "result": "significant increase in mitophagy activity"}, {"measurement": "mitophagy activity compared to the control group", "setting": "[7]", "result": "significant increase in mitophagy activity"}, {"measurement": "ATP production level", "setting": "[8]", "result": "recover and increase"}, {"measurement": "autophagy activity", "setting": "[9]", "result": "did not increase autophagy activity"}, {"measurement": "mitochondrial ROS", "setting": "[1]", "result": "did not increase mitochondrial ROS"}, {"measurement": "concentration for similar dementia treatment effect, times lower than that of palmatine", "setting": "[4]; 1 mg/Kg vs 10 mg/Kg palmatine", "result": 10, "unit": "times"}, {"measurement": "learning effect (escape latency) during 6 days of training", "setting": "[4]; [10]", "result": "learning effect from day 3 to day 6"}, {"measurement": "time spent near the escape platform, free-swimming analysis on the 7th day", "setting": "[4]; [10]", "result": "recovered close to that of normal mice"}, {"measurement": "memory capabilities, free-swimming analysis on the 7th day", "setting": "[4]; APP/PS2 mice", "result": "improved similarly"}, {"measurement": "time from which a significant increase in mitophagy activity was observed", "setting": "[5]; BEAS-2B mt-Keima, 15 μM, flow cytometry, FIG. 3B", "result": 3, "unit": "h"}, {"measurement": "concentration exhibiting mitophagy activity similar to the maximum of the comparators", "setting": "[5]; BEAS-2B mt-Keima, FIG. 5", "result": 10, "unit": "µM"}, {"measurement": "concentration from which mitophagy activity began to significantly increase", "setting": "[5]; [11]", "result": 7.5, "unit": "µM"}, {"measurement": "concentration up to which mitophagy activity continued to increase concentration-dependently", "setting": "[5]; [11]", "result": 17.5, "unit": "µM"}, {"measurement": "mitophagy activity compared to the untreated control group", "setting": "[5]; BEAS-2B mt-Keima, CD1-012 15 μM, 24 hours, FIG. 1", "result": "significant increase in mitophagy activity"}, {"measurement": "mitophagy activity compared with CCCP-treated sample", "setting": "[5]; flow cytometry (FIG. 1A), CD1-012 15 μM vs CCCP 10 μM, 24 hours", "result": "increased as significantly as that of the sample treated with the representative mitophagy promoting compound, CCCP"}, {"measurement": "mitophagy-promoting activity effect, times better than berberine", "setting": "[5]; from FIG. 5 concentrations", "result": "approximately 8 times"}, {"measurement": "mitophagy-promoting activity effect, times better than palmitate", "setting": "[5]; from FIG. 5 concentrations", "result": "about 40 times"}, {"measurement": "mitophagy activation in shPINK1 cells compared to the control cell line (shNT)", "setting": "[2]", "result": "did not show any significant difference"}, {"measurement": "mitochondrial membrane potential", "setting": "[3]", "result": "did not observe a decrease in the mitochondrial membrane potential"}]}, {"compound": "COc1ccc2cc3[n+](cc2c1OC)CCc1cc2c(cc1-3)OCO2", "note": "[berberine, Berberine, reference compound]", "values": [{"measurement": "concentration at which maximum mitophagy activity was reached", "setting": "[5]; BEAS-2B mt-Keima, FIG. 5", "result": 80, "unit": "µM"}]}]}
